Activity calls are given as the source filed them. No cut-off for these calls is given here.
Tests used:
A549 [1] = assay: Cytotoxicity against human A549 cells assessed as inhibition of cell growth incubated for 24 hrs by MTT assay; type: functional, cell-based; settings: A549, 24 h
[2] = Cytotoxicity against human CCD 19Lu cells assessed as inhibition of cell growth incubated for 24 hrs by MTT assay; type: toxicity, cell-based
[3] = Selectivity index, ratio of IC50 for cytotoxicity against human CCD 19Lu cells to IC50 for cytotoxicity against human A549 cells; type: toxicity, cell-based; settings: CCD 19Lu cells versus A549 cells, read-out: Ratio IC50
PANC-1 [4] = assay: Cytotoxicity against human PANC-1 cells assessed as inhibition of cell growth incubated for 24 hrs by MTT assay; type: functional, cell-based; settings: PANC-1, 24 h
[5] = Cytotoxicity against human hTERT-HPNE cells assessed as inhibition of cell growth incubated for 24 hrs by MTT assay; type: toxicity, cell-based
[6] = Selectivity index, ratio of IC50 for cytotoxicity against human hTERT-HPNE cells to IC50 for cytotoxicity against human PANC-1 cells; type: toxicity, cell-based; settings: hTERT-HPNE cells versus PANC-1 cells, read-out: Ratio IC50
A549 [7] = assay: Inhibition of DNA synthesis in human A549 cells at 5.99 uM incubated for 24 hrs by BrdU incorporation assay relative to control; type: functional
PANC-1 [8] = assay: Inhibition of DNA synthesis in human PANC-1 cells at 5.99 uM incubated for 24 hrs by BrdU incorporation assay relative to control; type: functional
A549 [9] = assay: Induction of apoptosis in human A549 cells assessed as early apoptotic cells at IC50 incubated for 24 hrs by annexin V-FITC/PI staining based flow cytometry analysis (reference value: 5.6%); type: functional
A549 [10] = assay: Induction of apoptosis in human A549 cells assessed as late apoptotic cells at IC50 incubated for 24 hrs by annexin V-FITC/PI staining based flow cytometry analysis (reference value: 6.5 %); type: functional
A549 [11] = assay: Induction of apoptosis in human A549 cells assessed as total cell viability at IC50 incubated for 24 hrs by annexin V-FITC/PI staining based flow cytometry analysis (reference value: 85.6 %); type: functional
A549 [12] = assay: Induction of apoptosis in human A549 cells assessed as total apoptotic cells at IC50 incubated for 24 hrs by annexin V-FITC/PI staining based flow cytometry analysis relative to control; type: functional
PANC-1 [13] = assay: Induction of apoptosis in human PANC-1 cells assessed as early apoptotic cells at IC50 incubated for 24 hrs by annexin V-FITC/PI staining based flow cytometry analysis (reference value: 0%); type: functional
PANC-1 [14] = assay: Induction of apoptosis in human PANC-1 cells assessed as late apoptotic cells at IC50 incubated for 24 hrs by annexin V-FITC/PI staining based flow cytometry analysis (reference value: 0.2%); type: functional
PANC-1 [15] = assay: Induction of apoptosis in human PANC-1 cells assessed as total cell viability at IC50 incubated for 24 hrs by annexin V-FITC/PI staining based flow cytometry analysis (reference value: 84.4%); type: functional
A549 [16] = assay: Induction of apoptosis in human A549 cells assessed as activation of caspase-3 by measuring caspase-3 positive cells at IC50 incubated for 24 hrs by flow cytometry analysis (reference value: 8.4%); type: functional
A549 [17] = assay: Induction of apoptosis in human A549 cells assessed as activation of caspase-3 by measuring caspase-3 negative cells at IC50 incubated for 24 hrs by flow cytometry analysis (reference value: 91.1%); type: functional
PANC-1 [18] = assay: Induction of apoptosis in human PANC-1 cells assessed as activation of caspase-3 by measuring caspase-3 positive cells at IC50 incubated for 24 hrs by flow cytometry analysis (reference value: 1.8%); type: functional
PANC-1 [19] = assay: Induction of apoptosis in human PANC-1 cells assessed as activation of caspase-3 by measuring caspase-3 negative cells at IC50 incubated for 24 hrs by flow cytometry analysis (reference value: 98.5 %); type: functional
A549 [20] = assay: Induction of mitochondrial membrane potential loss in human A549 cells assessed as polarized cells at IC50 incubated for 24 hrs by JC-1 staining based flow cytometry assay (reference value: 90.6%); type: functional
A549 [21] = assay: Induction of mitochondrial membrane potential loss in human A549 cells assessed as depolarized cells at IC50 incubated for 24 hrs by JC-1 staining based flow cytometry assay (reference value: 6.9%); type: functional
PANC-1 [22] = assay: Induction of mitochondrial membrane potential loss in human PANC-1 cells assessed as polarized cells at IC50 incubated for 24 hrs by JC-1 staining based flow cytometry assay (reference value: 92%); type: functional
PANC-1 [23] = assay: Induction of mitochondrial membrane potential loss in human PANC-1 cells assessed as depolarized cells at IC50 incubated for 24 hrs by JC-1 staining based flow cytometry assay (reference value: 5%); type: functional
A549 [24] = assay: Induction of apoptosis in human A549 cells assessed as increase in intracellular calcium level at 5.99 uM by Fluo-4-AM staining based flow cytometry analysis; type: functional, cell-based
A549 [25] = assay: Induction of morphological changes in human A549 cells assessed as cell shrinkage at 5.99 uM incubated for 24 hrs by acridine orange/ethidium bromide staining based fluorescence microscopic analysis; type: functional
A549 [26] = assay: Induction of morphological changes in human A549 cells assessed as chromatin condensation at 5.99 uM incubated for 24 hrs by acridine orange/ethidium bromide staining based fluorescence microscopic analysis; type: functional, cell-based
A549 [27] = assay: Induction of morphological changes in human A549 cells assessed as formation of apoptotic bodies at 5.99 uM incubated for 24 hrs by acridine orange/ethidium bromide staining based fluorescence microscopic analysis; type: functional, cell-based
PANC-1 [28] = assay: Induction of morphological changes in human PANC-1 cells assessed as cell shrinkage at 5.99 uM incubated for 24 hrs by acridine orange/ethidium bromide staining based fluorescence microscopic analysis; type: functional
PANC-1 [29] = assay: Induction of morphological changes in human PANC-1 cells assessed as chromatin condensation at 5.99 uM incubated for 24 hrs by acridine orange/ethidium bromide staining based fluorescence microscopic analysis; type: functional, cell-based
PANC-1 [30] = assay: Induction of morphological changes in human PANC-1 cells assessed as formation of apoptotic bodies at 5.99 uM incubated for 24 hrs by acridine orange/ethidium bromide staining based fluorescence microscopic analysis; type: functional, cell-based
[31] = molecular target: Cathepsin D (Homo sapiens) (UniProt P07339); assay: Inhibition of cathepsin D (unknown origin) at 100 uM relative to control
Cathepsin D (Homo sapiens), sequence (P07339 65-162 limits assumed): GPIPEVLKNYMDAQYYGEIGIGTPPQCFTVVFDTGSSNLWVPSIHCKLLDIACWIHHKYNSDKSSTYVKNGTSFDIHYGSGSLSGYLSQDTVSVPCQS
Cathepsin D (Homo sapiens), sequence (P07339 169-412 limits assumed): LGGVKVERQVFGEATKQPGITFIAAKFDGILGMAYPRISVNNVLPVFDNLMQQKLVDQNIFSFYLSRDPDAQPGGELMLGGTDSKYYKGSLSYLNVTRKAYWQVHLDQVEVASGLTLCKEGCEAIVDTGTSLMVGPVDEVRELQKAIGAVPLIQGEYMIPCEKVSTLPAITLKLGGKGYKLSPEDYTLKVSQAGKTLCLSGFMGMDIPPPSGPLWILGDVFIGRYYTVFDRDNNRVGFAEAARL

A549 [32] = assay: Inhibition of DNA synthesis in human A549 cells at IC50/4 incubated for 24 hrs by BrdU incorporation assay relative to control; type: functional
A549 [33] = assay: Inhibition of DNA synthesis in human A549 cells at IC50/2 incubated for 24 hrs by BrdU incorporation assay relative to control; type: functional
A549 [34] = assay: Inhibition of DNA synthesis in human A549 cells at IC50 incubated for 24 hrs by BrdU incorporation assay relative to control; type: functional
PANC-1 [35] = assay: Inhibition of DNA synthesis in human PANC-1 cells at 10.04 uM incubated for 24 hrs by BrdU incorporation assay relative to control; type: functional
A549 [36] = assay: Induction of morphological changes in human A549 cells assessed as cell shrinkage at 15.33 uM incubated for 24 hrs by acridine orange/ethidium bromide staining based fluorescence microscopic analysis; type: functional
A549 [37] = assay: Induction of morphological changes in human A549 cells assessed as chromatin condensation at 15.33 uM incubated for 24 hrs by acridine orange/ethidium bromide staining based fluorescence microscopic analysis; type: functional, cell-based
A549 [38] = assay: Induction of morphological changes in human A549 cells assessed as formation of apoptotic bodies at 15.33 uM incubated for 24 hrs by acridine orange/ethidium bromide staining based fluorescence microscopic analysis; type: functional, cell-based
PANC-1 [39] = assay: Induction of morphological changes in human PANC-1 cells assessed as cell shrinkage at 10.04 uM incubated for 24 hrs by acridine orange/ethidium bromide staining based fluorescence microscopic analysis; type: functional
PANC-1 [40] = assay: Induction of morphological changes in human PANC-1 cells assessed as chromatin condensation at 10.04 uM incubated for 24 hrs by acridine orange/ethidium bromide staining based fluorescence microscopic analysis; type: functional, cell-based
PANC-1 [41] = assay: Induction of morphological changes in human PANC-1 cells assessed as formation of apoptotic bodies at 10.04 uM incubated for 24 hrs by acridine orange/ethidium bromide staining based fluorescence microscopic analysis; type: functional, cell-based
[42] = molecular target: Procathepsin L (Homo sapiens) (UniProt P07711); assay: Inhibition of cathepsin L (unknown origin) at 100 uM
Procathepsin L (Homo sapiens), sequence (P07711 114-333 limits assumed): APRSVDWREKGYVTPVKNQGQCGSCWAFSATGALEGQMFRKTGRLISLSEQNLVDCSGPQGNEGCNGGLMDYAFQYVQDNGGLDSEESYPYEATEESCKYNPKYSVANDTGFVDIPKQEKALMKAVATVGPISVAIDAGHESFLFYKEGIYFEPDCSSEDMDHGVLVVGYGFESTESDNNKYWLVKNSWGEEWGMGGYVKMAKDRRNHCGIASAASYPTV

[43] = molecular target: Cathepsin D (Homo sapiens) (UniProt P07339); assay: Inhibition of cathepsin D (unknown origin) at 100 uM

SMILES: O=C1/C(=C/c2ccc(N3CCCC3)cc2)Cc2cc3c(cc21)OCO3
- IC50 (A549 [1]): < 11.7 µM
- IC50 at 24 h [2]: 61.5 µM
- selectivity ratio [3]: > 5.25
- IC50 (PANC-1 [4]): < 11.7 µM
- IC50 at 24 h [5]: > 1500 µM
- selectivity ratio [6]: > 128
- inhibition at 5.99 µM (A549 [7]): 4.41%
- inhibition at 5.99 µM (PANC-1 [8]): 31%
- Activity (A549 [9]): 65.4%
- Activity (A549 [10]): 20%
- Activity (A549 [11]): 12.5%
- Activity (A549 [12]): 85.4%
- Activity (PANC-1 [13]): 0.6%
- Activity (PANC-1 [14]): 3.4%
- Activity (PANC-1 [15]): 76.3%
- Activity (A549 [16]): 7.4%
- Activity (A549 [17]): 92.5%
- Activity (PANC-1 [18]): 11.3%
- Activity (PANC-1 [19]): 89.6%
- Activity (A549 [20]): 76.4%
- Activity (A549 [21]): 65%
- Activity (PANC-1 [22]): 82%
- Activity (PANC-1 [23]): 16.7%
- Activity (A549 [24]): Active
- Activity (A549 [25]): Active
- Activity (A549 [26]): Active
- Activity (A549 [27]): Active
- Activity (PANC-1 [28]): Active
- Activity (PANC-1 [29]): Active
- Activity (PANC-1 [30]): Active
- inhibition [31]: 52.7%

SMILES: O=C1/C(=C/c2ccc(OCCN3CCOCC3)cc2)Cc2cc3c(cc21)OCO3
- IC50 (A549 [1]): 15.3 µM
- IC50 at 24 h [2]: 160 µM
- selectivity ratio [3]: 10.4
- IC50 (PANC-1 [4]): 10 µM
- IC50 at 24 h [5]: > 1270 µM
- selectivity ratio [6]: > 127
- inhibition (INH) (A549 [32]): 4.83%
- inhibition (INH) (A549 [33]): 9.78%
- inhibition (INH) (A549 [34]): 19.99%
- inhibition at 10.04 µM (PANC-1 [35]): 18.4%
- Activity (A549 [9]): 10.4%
- Activity (A549 [10]): 5.6%
- Activity (A549 [11]): 82.4%
- Activity (PANC-1 [13]): 0.1%
- Activity (PANC-1 [14]): 0.5%
- Activity (PANC-1 [15]): 9.5%
- Activity (A549 [16]): 6.9%
- Activity (A549 [17]): 93.2%
- Activity (PANC-1 [18]): 7.3%
- Activity (PANC-1 [19]): 93.6%
- Activity (A549 [20]): 62.8%
- Activity (A549 [21]): 35%
- Activity (PANC-1 [22]): 37.8%
- Activity (PANC-1 [23]): 61.2%
- Activity (A549 [36]): Active
- Activity (A549 [37]): Active
- Activity (A549 [38]): Active
- Activity (PANC-1 [39]): Active
- Activity (PANC-1 [40]): Active
- Activity (PANC-1 [41]): Active
- inhibition [42]: inactive
- inhibition [43]: inactive

Reference: ChEMBL document CHEMBL5247607, “Design, synthesis and biological evaluation of a new series of arylidene indanones as small molecules for targeted therapy of non-small cell lung carcinoma and prostate cancer” (Eur J Med Chem, 2022)
